Results from patent US7713994B2 (Wyeth LLC, priority 2005, dated 2010).

Legend:
[1] = test system: BT474; assay: Cytotoxicity assay (SRB), BT474; type: cell-based; settings: Homo sapiens, BT-474, 144 h, BT474 cells, SRB, 6 days; read-out: In Vitro Cellular Activity IC50 BT474
Outline: (§1)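 Cells were seeded overnight in RPMI 1640 with 5% FBS at 37 °C, 7% CO2 (12000/well BT474, 4000 HCT-116, 6000 LoVo, 6000 MCF-7), then exposed to compound dilutions for 3 days (6 days for BT474). Survival versus untreated controls was measured by TCA fixation and SRB staining at 540 nm.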

[2] = molecular target: T1, cyclin D1/cdk 4 enzyme (Homo sapiens, UniProt P11802); assay: CDK4 ELISA kinase assay (phospho-Rb ser 795 detection); type: biochemical; settings: In Vitro Enzyme Assays, 200 μM ATP, read-out: CDK4 IC50
T1 construct: made in house; host or cells: Sf9 insect cells, recombinant baculovirus
Outline: (§2)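 Wells were coated overnight with GST-Rb C-terminal fragment, then blocked. Compound (10 ug/ml final) and cyclin/CDK enzyme from baculovirus-infected Sf9 cells with 200 μM ATP reacted 1 h at 30° C. Ser795 phosphorylation was detected by ELISA at 450 nm.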

[3] = molecular target: T2, cyclin B/CDK1 enzyme (Homo sapiens, UniProt P06493); assay: CDK1 ELISA kinase assay (phospho-Rb ser 795 detection); type: biochemical; settings: In Vitro Enzyme Assays, read-out: CDK1 IC50
T2 construct: purchased New England BioLabs; host or cells: Sf9 insect cells, recombinant baculovirus
Outline: as §2

[4] = test system: LoVo; assay: Cytotoxicity assay (SRB), LoVo; type: cell-based; settings: Homo sapiens, LoVo, 72 h, LoVo cells, SRB, three days; read-out: In Vitro Cellular Activity IC50 LOVO
Outline: as §1

[5] = test system: HCT-116; assay: Cytotoxicity assay (SRB), HCT-116; type: cell-based; settings: Homo sapiens, HCT-116, 72 h, HCT116 cells, SRB, three days; read-out: In Vitro Cellular Activity IC50 HCT116
Outline: as §1

[6] = test system: MCF-7; assay: Cytotoxicity assay (SRB), MCF-7; type: cell-based; settings: Homo sapiens, MCF7, 72 h, MCF-7 cells, SRB, three days; read-out: In Vitro Cellular Activity IC50 MCF-7
Outline: as §1

[7] = molecular target: T3, cyclin E/CDK2 enzyme (Homo sapiens, UniProt P24941); assay: CDK2 ELISA kinase assay (phospho-Rb ser 795 detection); type: biochemical; settings: In Vitro Enzyme Assays, read-out: CDK2 IC50
T3 construct: made in house; host or cells: Sf9 insect cells, recombinant baculovirus
Outline: as §2

T2 sequence (P06493 whole entry): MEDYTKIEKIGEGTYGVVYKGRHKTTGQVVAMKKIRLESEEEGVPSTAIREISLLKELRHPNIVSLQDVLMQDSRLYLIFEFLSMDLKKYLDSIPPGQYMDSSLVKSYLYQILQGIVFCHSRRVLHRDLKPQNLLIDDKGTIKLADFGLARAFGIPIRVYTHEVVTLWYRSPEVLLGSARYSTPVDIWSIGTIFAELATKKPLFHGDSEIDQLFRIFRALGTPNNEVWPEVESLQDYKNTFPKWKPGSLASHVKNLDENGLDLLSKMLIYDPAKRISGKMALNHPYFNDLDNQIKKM
T2 sequence (P14635 whole entry partner): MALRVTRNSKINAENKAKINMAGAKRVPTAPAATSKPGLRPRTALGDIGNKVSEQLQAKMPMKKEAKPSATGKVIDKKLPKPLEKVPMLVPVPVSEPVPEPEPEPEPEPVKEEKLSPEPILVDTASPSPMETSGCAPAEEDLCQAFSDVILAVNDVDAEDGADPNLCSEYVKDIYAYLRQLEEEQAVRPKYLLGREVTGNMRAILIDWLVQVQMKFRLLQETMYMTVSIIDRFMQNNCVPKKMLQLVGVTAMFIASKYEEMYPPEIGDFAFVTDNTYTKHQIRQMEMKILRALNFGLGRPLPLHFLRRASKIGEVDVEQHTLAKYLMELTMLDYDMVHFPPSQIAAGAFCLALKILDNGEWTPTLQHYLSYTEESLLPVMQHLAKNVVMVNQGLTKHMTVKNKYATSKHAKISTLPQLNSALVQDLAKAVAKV
T1 sequence (P11802 whole entry, species assumed): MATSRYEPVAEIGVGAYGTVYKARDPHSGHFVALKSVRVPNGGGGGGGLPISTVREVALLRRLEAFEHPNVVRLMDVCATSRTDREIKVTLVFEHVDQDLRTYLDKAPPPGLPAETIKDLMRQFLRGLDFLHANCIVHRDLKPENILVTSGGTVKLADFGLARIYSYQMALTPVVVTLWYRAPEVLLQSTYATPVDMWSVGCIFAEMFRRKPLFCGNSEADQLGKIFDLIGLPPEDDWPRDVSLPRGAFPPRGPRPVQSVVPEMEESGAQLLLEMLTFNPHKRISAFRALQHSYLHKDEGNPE
T1 sequence (P24385 whole entry partner, species assumed): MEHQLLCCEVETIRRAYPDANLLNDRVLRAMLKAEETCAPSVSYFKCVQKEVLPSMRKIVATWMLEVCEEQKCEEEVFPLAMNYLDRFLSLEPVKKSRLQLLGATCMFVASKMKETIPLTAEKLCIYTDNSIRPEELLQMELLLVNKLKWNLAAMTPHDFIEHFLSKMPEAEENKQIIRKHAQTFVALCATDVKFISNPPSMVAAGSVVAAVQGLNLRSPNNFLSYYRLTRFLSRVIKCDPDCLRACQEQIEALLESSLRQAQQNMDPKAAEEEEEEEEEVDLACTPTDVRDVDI

SMILES | IC50 [1] [µM] | IC50 [2] [nM] | IC50 [3] [µM] | IC50 [4] [µM] | IC50 [5] [µM] | IC50 [6] [µM] | IC50 [7] [µM] | melting point
COc1cc(CN/C=C2\C(=O)NC(=O)c3ccc(-c4ccc(Oc5ccccc5)cc4)cc32)cc(O)c1OC [Example 100, (4Z)-6-(4-Phenoxyphenyl)-4-{[(3-hydroxy-4,5-dimethoxybenzyl)amino]methylene}isoquinoline-1,3(2H,4H)-dione] | 8.8 | 340 | > 50 | 27.8 | 13.6 | 11 | > 50 | 240 to 241 °C
O=C1NC(=O)c2ccc(Br)cc2/C1=C/N1CCN(CCN2CCOCC2)CC1 [Example 105, (4Z)-6-Bromo-4-{[4-(2-morpholin-4-ylethyl)piperazin-1-yl]methylene}isoquinoline-1,3(2H,4H)-dione] | 36.9 | 24300 | > 50 | 42.9 | 42.6 | > 50 | > 50 | 156 to 156.5 °C
CN(C)CCN1CCN(/C=C2\C(=O)NC(=O)c3ccc(Br)cc32)CC1 [Example 106, (4Z)-6-Bromo-4-({4-[2-(dimethylamino)ethyl]piperazin-1-yl}methylene)isoquinoline-1,3(2H,4H)-dione] | 44.6 | 31500 | > 50 | > 50 | > 50 | > 50 | > 50 | 166 to 167 °C
O=C1NC(=O)c2ccc(/C=C/CCCCl)cc2/C1=C/Nc1ccc(CN2CCCCC2)cc1 [Example 112, (4Z)-6-[(1E)-5-Chloropent-1-enyl]-4-({[4-(piperidin-1-ylmethyl)phenyl]amino}methylene)isoquinoline-1,3(2H,4H)-dione] | 2.3 | 2900 | 3.8 | 1.9 | 0.98 | 3.3 | > 50 | 268 to 269 °C
COc1cc(CN/C=C2\C(=O)NC(=O)c3ccc(-c4ccc(Cl)cc4)cc32)cc(O)c1OC [Example 113, (4Z)-6-(4-Chlorophenyl)-4-{[(3-hydroxy-4,5-dimethoxybenzyl)amino]methylene}isoquinoline-1,3(2H,4H)-dione] | 11 | 20 | 47.6 | 2.9 | 5.8 | 6.2 | 37.2 | 240 to 241 °C
Nc1ccc(CN/C=C2\C(=O)NC(=O)c3ccc(I)cc32)cc1O [Example 122, (4Z)-4-{[(4-Amino-3-hydroxybenzyl)amino]methylene}-6-iodoisoquinoline-1,3(2H,4H)-dione] | 5.2 | 40 | 16.1 | 9.9 | 7.5 | 17 | 1.6 | 250 to 251 °C
O=C1NC(=O)c2ccc(-c3ccc(CN4CCCCC4)cc3)cc2C1=CNc1ccc(CN2CCCCC2)cc1 [Example 125, 6-(4-Piperidin-1-ylmethyl-phenyl)-4-[(4-piperidin-1-ylmethyl-phenylamino)-methylene]-4H-isoquinoline-1,3-dione] | 3.9 | 44400 | > 50 | 1.1 | 1.2 | 1.8 | > 50 | 159 to 160 °C
O=C1NC(=O)c2ccc(I)cc2/C1=C/Nc1ccc(CN2CCCC2)cc1 [Example 126] | 0.9 | 660 | > 50 | 5.1 | 3.4 | 2.3 | 10 | 186 to 187 °C
O=C1NC(=O)c2ccc(-c3ccc(F)cc3)cc2/C1=C/Nc1ccc(CN2CCCC2)cc1 [Example 127, (4Z)-6-(4-Fluorophenyl)-4-({[4-(pyrrolidin-1-ylmethyl)phenyl]amino}methylene)isoquinoline-1,3(2H,4H)-dione] | 1.4 | 370 | > 50 | 2.9 | 1.3 | 1.4 | > 50 | 152 to 153 °C
Nc1ccc(CN/C=C2\C(=O)NC(=O)c3ccc(-c4ccc(F)cc4)cc32)cc1O [Example 134, (4Z)-4-{[(4-Amino-3-hydroxybenzyl)amino]methylene}-6-(4 fluorophenyl)isoquinoline-1,3(2H,4H)-dione] | 11 | 40 | > 50 | 11 | 13 | 12 | 13.2 | 227 to 228 °C
COc1ccc(CN/C=C2\C(=O)NC(=O)c3ccc(-c4cn[nH]c4)cc32)cc1O [Example 136, (4Z)-4-{[(3-Hydroxy-4-methoxybenzyl)amino]methylene}-6-(1H-pyrazol-4-yl)isoquinoline-1,3(2H,4H)-dione] | 16 | 5 | 4 | 36 | 25 | 48 | 0.43 | 252 to 253 °C
CC(C)Oc1ccc(CN/C=C2\C(=O)NC(=O)c3ccc(Br)cc32)cc1O [Example 137, (4Z)-6-Bromo-4-{[(3-hydroxy-4-isopropoxybenzyl)amino]methylene}isoquinoline-1,3(2H,4H)-dione] | 3.3 | 690 | > 50 | 5.8 | 4.4 | 17 | 33.9 | 212 to 213 °C
CC1CCCN1Cc1ccc(N/C=C2\C(=O)NC(=O)c3ccc(I)cc32)cc1 (stereo not drawn) [Example 138, (4Z)-6-Iodo-4-[({4-[(2-methylpyrrolidin-1-yl)methyl]phenyl}amino)methylene]isoquinoline-1,3(2H,4H)-dione] | 0.41 | 140 | > 50 | 4.9 | 3.7 | 1.2 | > 50 | 157 to 158 °C
CC(=O)Nc1ccc(CN/C=C2\C(=O)NC(=O)c3ccc(Br)cc32)cc1OC(C)=O [Example 141, 2-(Acetylamino)-5-({[(Z)-(6-bromo-1,3-dioxo-2,3-dihydroisoquinolin-4(1H)-′ylidene)methyl]amino}methyl)phenyl acetate] | 0.56 | 190 | > 50 | 1.3 | 0.84 | 16 | > 50 | 264 to 265 °C
Cl.O=C1NC(=O)c2ccc(Br)cc2C1=NNc1ccc(CN2CCCCC2)cc1 [Example 144, 6-Bromo-4-[(4-piperidin-1-ylmethyl-phenyl)-hydrazono]-4H-isoquinoline-1,3-dione Hydrochloride] | 3.2 | 1900 | > 50 | 3.2 | 1.5 | 3.2 | > 50 | 298 to 299 °C (dec.)
